Laboratory results as given in patent US10597388B2, “Pyridazinone herbicides” (FMC CORPORATION, priority 2014, dated 2020).

What was measured:
Assay in all cases: Test C greenhouse herbicide test, pre- and postemergence
Type in all cases: in vivo
[1] = tested on: blackgrass (Alopecurus myosuroides)
Summary of the method: (§1)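 Visual ratings on a 0 to 100 scale (0 = no effect, 100 = complete control) versus untreated controls, scored 13–15 d after treatment. Soil-applied preemergence to seeded loam/sand; foliar postemergence to 1- to 4-leaf plants (2–18 cm) in peat-vermiculite mix; compounds formulated in solvent plus surfactant.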

corn (Zea mays) = tested on: corn (Zea mays)
Summary of the method: as §1

[2] = tested on: crabgrass, large (large crabgrass, Digitaria sanguinalis)
Summary of the method: as §1

[3] = tested on: foxtail, giant (giant foxtail, Setaria faberii)
Summary of the method: as §1

[4] = tested on: galium (catchweed bedstraw, Galium aparine)
Summary of the method: as §1

[5] = tested on: johnsongrass (Sorghum halepense)
Summary of the method: as §1

[6] = tested on: lambsquarters (Chenopodium album)
Summary of the method: as §1

[7] = tested on: morningglory (Ipomoea coccinea)
Summary of the method: as §1

[8] = tested on: nutsedge, yellow (yellow nutsedge, Cyperus esculentus)
Summary of the method: as §1

[9] = tested on: oilseed rape (Brassica napus)
Summary of the method: as §1

[10] = tested on: pigweed (Amaranthus retroflexus)
Summary of the method: as §1

[11] = tested on: ryegrass, Italian (Italian ryegrass, Lolium multiflorum)
Summary of the method: as §1

soybean (Glycine max) = tested on: soybean (Glycine max)
Summary of the method: as §1

[12] = tested on: velvetleaf (Abutilon theophrasti)
Summary of the method: as §1

[13] = tested on: waterhemp (common waterhemp, Amaranthus rudis)
Summary of the method: as §1

[14] = tested on: wheat (winter wheat, Triticum aestivum)
Summary of the method: as §1

[15] = Postemergence, 16 g ai/ha, scale 0 to 100 (0 no effect, 100 complete control)
[16] = Postemergence, 31 g ai/ha, scale 0 to 100 (0 no effect, 100 complete control)
[17] = Postemergence, 62 g ai/ha, 0 to 100 scale (0 no effect, 100 complete control)
[18] = postemergence, 125 g ai/ha, scale 0 to 100, 0 no effect, 100 complete control
[19] = Postemergence, 31 g ai/ha, 0 to 100 scale (0 no effect, 100 complete control)
[20] = Postemergence, 125 g ai/ha, scale 0 to 100, 0 is no effect, 100 is complete control
[21] = Postemergence, 250 g ai/ha, scale 0 to 100, 0 no effect, 100 complete control, 13 to 15 d
[22] = Preemergence, 31 g ai/ha, scale 0 to 100, 0 is no effect, 100 is complete control
[23] = Preemergence, 62 g ai/ha, scale 0 to 100, 0 is no effect, 100 is complete control
[24] = Preemergence, 125 g ai/ha, scale 0 to 100, 0 is no effect, 100 is complete control
[25] = Preemergence, 250 g ai/ha, scale 0 to 100 (0 no effect, 100 complete control)
[26] = postemergence, 62 g ai/ha, scale 0 to 100, 0 no effect, 100 complete control

## COC(=O)Oc1cnn(C)c(=O)c1-c1c(C)ccc2ccccc12 [Compound 143]
[1]; [15]
  Plant response rating, Blackgrass: 0
[1]; [16]
  Plant response rating, Blackgrass: 5
[1]; [17]
  Blackgrass plant response rating: 5
[1]; [18]
  Blackgrass plant response rating: 20
Corn (Zea mays); [15]
  Plant response rating, Corn: 0
Corn (Zea mays); [16]
  Plant response rating, Corn: 5
Corn (Zea mays); [17]
  Corn plant response rating: 0
Corn (Zea mays); [18]
  Corn plant response rating: 5
[2]; [15]
  Plant response rating, Crabgrass, Large: 5
[2]; [16]
  Plant response rating, Crabgrass, Large: 10
[2]; [17]
  Crabgrass, Large plant response rating: 10
[2]; [18]
  Crabgrass, Large plant response rating: 30
[3]; [15]
  Plant response rating, Foxtail, Giant: 5
[3]; [16]
  Plant response rating, Foxtail, Giant: 5
[3]; [17]
  Foxtail, Giant plant response rating: 5
[3]; [18]
  Foxtail, Giant plant response rating: 20
[4]; [15]
  Plant response rating, Galium: 60
[4]; [16]
  Plant response rating, Galium: 65
[4]; [17]
  Galium plant response rating: 90
[4]; [18]
  Galium plant response rating: 90
[5]; [15]
  Plant response rating, Johnsongrass: 10
[5]; [16]
  Plant response rating, Johnsongrass: 10
[5]; [17]
  Johnsongrass plant response rating: 25
[5]; [18]
  Johnsongrass plant response rating: 20
[6]; [15]
  Plant response rating, Lambsquarters: 10
[6]; [16]
  Plant response rating, Lambsquarters: 50
[6]; [17]
  Lambsquarters plant response rating: 60
[6]; [18]
  Lambsquarters plant response rating: 75
[7]; [15]
  Plant response rating, Morningglory: 30
[7]; [16]
  Plant response rating, Morningglory: 50
[7]; [17]
  Morningglory plant response rating: 65
[7]; [18]
  Morningglory plant response rating: 70
[8]; [15]
  Plant response rating, Nutsedge, Yellow: 10
[8]; [16]
  Plant response rating, Nutsedge, Yellow: 10
[8]; [17]
  Nutsedge, Yellow plant response rating: 40
[8]; [18]
  Nutsedge, Yellow plant response rating: 35
[9]; [15]
  Plant response rating, Oilseed Rape: 60
[9]; [16]
  Plant response rating, Oilseed Rape: 0
[9]; [17]
  Oilseed Rape plant response rating: 0
[9]; [18]
  Oilseed Rape plant response rating: 5
[10]; [15]
  Plant response rating, Pigweed: 50
[10]; [16]
  Plant response rating, Pigweed: 50
[10]; [17]
  Pigweed plant response rating: 65
[10]; [18]
  Pigweed plant response rating: 75
[11]; [15]
  Plant response rating, Ryegrass, Italian: 45
[11]; [16]
  Plant response rating, Ryegrass, Italian: 55
[11]; [17]
  Ryegrass, Italian plant response rating: 60
[11]; [18]
  Ryegrass, Italian plant response rating: 90
Soybean (Glycine max); [15]
  Plant response rating, Soybean: 0
Soybean (Glycine max); [16]
  Plant response rating, Soybean: 0
Soybean (Glycine max); [17]
  Soybean plant response rating: 15
Soybean (Glycine max); [18]
  Soybean plant response rating: 20
[12]; [15]
  Plant response rating, Velvetleaf: 30
[12]; [16]
  Plant response rating, Velvetleaf: 20
[12]; [17]
  Velvetleaf plant response rating: 25
[12]; [18]
  Velvetleaf plant response rating: 50
[13]; [15]
  Plant response rating, Waterhemp: 25
[13]; [16]
  Plant response rating, Waterhemp: 40
[13]; [17]
  Waterhemp plant response rating: 55
[13]; [18]
  Waterhemp plant response rating: 90
[14]; [15]
  Plant response rating, Wheat: 0
[14]; [16]
  Plant response rating, Wheat: 5
[14]; [17]
  Wheat plant response rating: 35
[14]; [18]
  Wheat plant response rating: 15

## CC(=O)Oc1c(C)nn(C)c(=O)c1-c1c(C)sc2c(C)cc(C)cc12 [Compound 27]
[1]; [19]
  Blackgrass plant response rating: 50
[1]; [20]
  Plant response rating, Blackgrass: 85
[1]; [21]
  Plant response rating, Blackgrass: 90
[1]; [22]
  Plant response rating, Blackgrass: 85
[1]; [23]
  Plant response rating, Blackgrass: 90
[1]; [24]
  Plant response rating, Blackgrass: 90
[1]; [25]
  Blackgrass plant response rating: 90
[1]; [26]
  Blackgrass plant response rating: 70
Corn (Zea mays); [19]
  Corn plant response rating: 0
Corn (Zea mays); [20]
  Plant response rating, Corn: 0
Corn (Zea mays); [21]
  Plant response rating, Corn: 15
Corn (Zea mays); [22]
  Plant response rating, Corn: 0
Corn (Zea mays); [23]
  Plant response rating, Corn: 0
Corn (Zea mays); [24]
  Plant response rating, Corn: 5
Corn (Zea mays); [25]
  Corn plant response rating: 0
Corn (Zea mays); [26]
  Corn plant response rating: 5
[2]; [19]
  Crabgrass, Large plant response rating: 5
[2]; [20]
  Plant response rating, Crabgrass, Large: 30
[2]; [21]
  Plant response rating, Crabgrass, Large: 45
[2]; [22]
  Plant response rating, Crabgrass, Large: 55
[2]; [23]
  Plant response rating, Crabgrass, Large: 80
[2]; [24]
  Plant response rating, Crabgrass, Large: 95
[2]; [25]
  Crabgrass, Large plant response rating: 98
[2]; [26]
  Crabgrass, Large plant response rating: 25
[3]; [19]
  Foxtail, Giant plant response rating: 60
[3]; [20]
  Plant response rating, Foxtail, Giant: 90
[3]; [21]
  Plant response rating, Foxtail, Giant: 95
[3]; [22]
  Plant response rating, Foxtail, Giant: 100
[3]; [23]
  Plant response rating, Foxtail, Giant: 100
[3]; [24]
  Plant response rating, Foxtail, Giant: 100
[3]; [25]
  Foxtail, Giant plant response rating: 100
[3]; [26]
  Foxtail, Giant plant response rating: 75
[4]; [19]
  Galium plant response rating: 100
[4]; [20]
  Plant response rating, Galium: 100
[4]; [21]
  Plant response rating, Galium: 100
[4]; [22]
  Plant response rating, Galium: 90
[4]; [23]
  Plant response rating, Galium: 95
[4]; [24]
  Plant response rating, Galium: 95
[4]; [25]
  Galium plant response rating: 95
[4]; [26]
  Galium plant response rating: 100
[5]; [19]
  Johnsongrass plant response rating: 10
[5]; [21]
  Plant response rating, Johnsongrass: 10
[5]; [22]
  Plant response rating, Johnsongrass: 0
[5]; [23]
  Plant response rating, Johnsongrass: 5
[5]; [24]
  Plant response rating, Johnsongrass: 5
[5]; [25]
  Johnsongrass plant response rating: 25
[5]; [26]
  Johnsongrass plant response rating: 0
[6]; [19]
  Lambsquarters plant response rating: 85
[6]; [20]
  Plant response rating, Lambsquarters: 90
[6]; [21]
  Plant response rating, Lambsquarters: 98
[6]; [22]
  Plant response rating, Lambsquarters: 70
[6]; [23]
  Plant response rating, Lambsquarters: 95
[6]; [24]
  Plant response rating, Lambsquarters: 95
[6]; [25]
  Lambsquarters plant response rating: 98
[6]; [26]
  Lambsquarters plant response rating: 85
[7]; [19]
  Morningglory plant response rating: 100
[7]; [20]
  Plant response rating, Morningglory: 100
[7]; [21]
  Plant response rating, Morningglory: 100
[7]; [22]
  Plant response rating, Morningglory: 85
[7]; [23]
  Plant response rating, Morningglory: 98
[7]; [24]
  Plant response rating, Morningglory: 100
[7]; [25]
  Morningglory plant response rating: 100
[7]; [26]
  Morningglory plant response rating: 100
[8]; [19]
  Nutsedge, Yellow plant response rating: 85
[8]; [21]
  Plant response rating, Nutsedge, Yellow: 95
[8]; [22]
  Plant response rating, Nutsedge, Yellow: 70
[8]; [23]
  Plant response rating, Nutsedge, Yellow: 90
[8]; [24]
  Plant response rating, Nutsedge, Yellow: 90
[8]; [25]
  Nutsedge, Yellow plant response rating: 95
[8]; [26]
  Nutsedge, Yellow plant response rating: 80
[9]; [19]
  Oilseed Rape plant response rating: 5
[9]; [20]
  Plant response rating, Oilseed Rape: 80
[9]; [21]
  Plant response rating, Oilseed Rape: 70
[9]; [22]
  Plant response rating, Oilseed Rape: 5
[9]; [23]
  Plant response rating, Oilseed Rape: 95
[9]; [24]
  Plant response rating, Oilseed Rape: 98
[9]; [25]
  Oilseed Rape plant response rating: 98
[9]; [26]
  Oilseed Rape plant response rating: 70
[10]; [19]
  Pigweed plant response rating: 55
[10]; [20]
  Plant response rating, Pigweed: 85
[10]; [21]
  Plant response rating, Pigweed: 90
[10]; [22]
  Plant response rating, Pigweed: 98
[10]; [23]
  Plant response rating, Pigweed: 100
[10]; [24]
  Plant response rating, Pigweed: 98
[10]; [25]
  Pigweed plant response rating: 100
[10]; [26]
  Pigweed plant response rating: 80
[11]; [19]
  Ryegrass, Italian plant response rating: 80
[11]; [20]
  Plant response rating, Ryegrass, Italian: 90
[11]; [21]
  Plant response rating, Ryegrass, Italian: 90
[11]; [22]
  Plant response rating, Ryegrass, Italian: 85
[11]; [23]
  Plant response rating, Ryegrass, Italian: 90
[11]; [24]
  Plant response rating, Ryegrass, Italian: 90
[11]; [25]
  Ryegrass, Italian plant response rating: 95
[11]; [26]
  Ryegrass, Italian plant response rating: 85
Soybean (Glycine max); [19]
  Soybean plant response rating: 0
Soybean (Glycine max); [20]
  Plant response rating, Soybean: 0
Soybean (Glycine max); [21]
  Plant response rating, Soybean: 0
Soybean (Glycine max); [23]
  Plant response rating, Soybean: 0
Soybean (Glycine max); [24]
  Plant response rating, Soybean: 10
Soybean (Glycine max); [25]
  Soybean plant response rating: 0
Soybean (Glycine max); [26]
  Soybean plant response rating: 0
[12]; [19]
  Velvetleaf plant response rating: 80
[12]; [20]
  Plant response rating, Velvetleaf: 90
[12]; [21]
  Plant response rating, Velvetleaf: 95
[12]; [23]
  Plant response rating, Velvetleaf: 85
[12]; [24]
  Plant response rating, Velvetleaf: 85
[12]; [25]
  Velvetleaf plant response rating: 98
[12]; [26]
  Velvetleaf plant response rating: 85
[13]; [19]
  Waterhemp plant response rating: 65
[13]; [20]
  Plant response rating, Waterhemp: 10
[13]; [21]
  Plant response rating, Waterhemp: 90
[13]; [23]
  Plant response rating, Waterhemp: 85
[13]; [24]
  Plant response rating, Waterhemp: 100
[13]; [25]
  Waterhemp plant response rating: 100
[13]; [26]
  Waterhemp plant response rating: 60
[14]; [19]
  Wheat plant response rating: 0
[14]; [20]
  Plant response rating, Wheat: 5
[14]; [21]
  Plant response rating, Wheat: 5
[14]; [23]
  Plant response rating, Wheat: 0
[14]; [24]
  Plant response rating, Wheat: 0
[14]; [25]
  Wheat plant response rating: 10
[14]; [26]
  Wheat plant response rating: 0
